By IC50 is commonly meant the concentration at which inhibition is half-maximal.

IC50 data for 44 compounds are collected here from PubChem BioAssay AID2305 (GlaxoSmithKline (GSK), 2010).

Molecules are shown by their SMILES.

In the assay the test system is P. falciparum 3D7 growth, pLDH absorbance. The assay can be described thus: blood-stage malaria parasite growth potency – strain 3D7, dose response (AID 2305).
Compound `Cc1cc(C)c(CC(C)NCC(O)c2cccc(C(F)(F)F)c2)c(C)c1` (centres undefined) had an IC50 of 570 nM.
To `CCCNCc1ccc(-c2ccc(CN(Cc3cccs3)C(=O)C3CCN(C)CC3)cc2)nc1` belongs 660 nM; to `O=C(Nc1ccccc1)N(Cc1cccc(-c2ccc(CNCc3ccc4c(c3)OCO4)cc2)c1)C1CCN(Cc2ccccc2)CC1`, 330 nM; to `COc1cccc2c(NN=Cc3cccc(Cl)c3)cc(C)nc12`, 710 nM.
`N#Cc1ccc2nc(-c3cc(-c4cccc(F)c4)cnc3N)[nH]c2c1`: the IC50 amounted to 190 nM.
To `CC1(C)N=C(N)NC(Nc2ccc(Cl)cc2)=N1` belongs 340 nM.
To `Cc1cc(NCCC(=O)NCCOc2ccccc2)nc(Nc2ccccc2)n1` belongs 1060 nM; to `Oc1ccc(CCNc2nc(N/N=C/c3ccc(Cl)cc3)nc(N3CCNCC3)n2)cc1`, 580 nM; to `N#Cc1cc([N+](=O)[O-])ccc1-n1nc(-c2cccc(Cl)c2)n(CC2CCCO2)c1=S` (centres undefined), 910 nM.
`NC(=O)c1cc2nc(Nc3ccc(F)cc3)nc(NC3CCC3)c2[nH]1`: the IC50 was 200 nM.
To `CN1CCCC1CCNCc1cccc(-c2cnc(N3CCCC(C)(C)C3)nc2)c1` (centres undefined) belongs 930 nM.
`c1cc(CNC2Cc3ccccc3C2)cc(-c2cnc(N3CCNCC3)nc2)c1` yielded an IC50 of 940 nM.
To `COc1ccc2ncc(F)c(CCN3CCC(NCc4cc(F)c5c(c4)OCCO5)CC3)c2n1` belongs 350 nM.
To `CNC(=O)c1cc(S(=O)(=O)N2CCN(c3ccccn3)CC2)c(C)s1` belongs 1160 nM; to `COc1ccc2nccc([C@@H](O)CN3CCC(NCc4nc5cc(F)ccc5o4)CC3)c2c1`, 150 nM.
To `Oc1ccc2ncnc(Nc3ccc(OCc4cccc(F)c4)c(Cl)c3)c2c1` belongs 990 nM; to `CN1CCN(c2ccc(Cl)cc2NC(=O)C2COc3ccccc3O2)CC1` (centres undefined), 810 nM; to `CC(=O)c1ccc2nc[nH]c(=O)c2c1`, 720 nM.
With `Cc1ccccc1C1CCN(C2CCC(NC(=O)/C=C/c3cccc(Cl)c3F)CC2)CC1` (centres undefined), the IC50 is 1140 nM.
Consider `COc1ccc(CN2CCCC(N3CC4(OC3=O)c3ccccc3-c3ccccc34)C2)c(O)c1` (centres undefined), for which the IC50 is 870 nM.
Consider `Cc1[nH]c(C)c(-c2ccc(Cl)cc2)c(=O)c1I`, for which the IC50 was 670 nM.
As for `CCc1cc2c(Sc3nc4ccccc4[nH]3)ncnc2s1`, the IC50 was 820 nM.
Consider `COc1ccccc1N1CCN(CCCCNC(=O)c2ccc(NC(=O)c3ccc(C(F)(F)F)cc3)cc2)CC1`, for which the IC50 came out at 300 nM.
Take `O=C(Nc1ccc(C(=O)OCC(c2ccccc2)c2ccccc2)cc1)N[C@@H](Cc1ccc(O)cc1)C(=O)NC1CCN(Cc2ccc(O)cc2)C1` (some centres undefined): the IC50 is 780 nM.
To `CCc1cc(NC2CCN(C)CC2)nc(Nc2cccc(OC)c2)n1` belongs 860 nM; to `Cc1ccc(C)c(S(=O)(=O)NCC2CCN(Cc3ccc(O)cc3)CC2)c1`, 980 nM.
To `Oc1ccc2ccccc2c1CNC1CCCCCC1` belongs 930 nM; to `Cc1nnsc1C(=O)Nc1cccc(-c2cccc(-c3nc4ccc(F)cc4[nH]3)c2)c1`, 220 nM.
The compound `CC(C)(Cc1ccc(Cl)cc1)NCCCCCCNCCc1ccc(O)c(O)c1` displayed an IC50 of 1200 nM.
In turn, `CC(c1cccc(Nc2nccc(-c3c(-c4cccc(NC(=O)c5c(F)cccc5F)c4)nn4ncccc34)n2)c1)S(C)(=O)=O` (centres undefined) yielded an IC50 of 50 nM.
To `CN1CCN(Cc2cccc(-c3ccc4c(Nc5ccc(Oc6ccccc6)cc5)ccnc4c3)c2)CC1` belongs 230 nM; to `N#Cc1ccc(N2CCN(Cc3cccc(-c4cccc(-c5nc6ccc(C(F)(F)F)cc6[nH]5)c4)c3)CC2)nc1`, 960 nM.
The compound `C=CCOc1cccc2c1CCN(CCN1CCC(NC(=O)c3ccc(-c4ccc(Cl)cc4)cc3)CC1)C2` displayed an IC50 of 670 nM.
To `CC1CCN(C(=O)CSc2nc(-c3ccc(C(C)C)cc3)no2)CC1` belongs 1350 nM.
Compound `CCc1nc(N)nc(N)c1-c1ccc2c(c1)CCCC2` showed an IC50 of 200 nM.
On to `N#Cc1cccc(CN2CCCN(Cc3cccc(C(=O)Nc4ccc(Cl)cc4)c3)CC2)c1`, for which the IC50 stood at 1180 nM.
For `O=C(NC1CCC(CN2CCC(c3c[nH]c4ccccc34)CC2)CC1)c1ccc(-c2ccccc2[N+](=O)[O-])o1` (centres undefined), the 50% inhibitory concentration (IC50) amounted to 770 nM.
`COc1ccc2nc(C)cc(NN=Cc3cc(OC)c(OC)cc3OC)c2c1` had an IC50 of 740 nM.
To `COc1ccc2nccc([C@@H](O)CN3CCC(NC(=O)/C=C/c4ccc5ccccc5n4)CC3)c2c1` belongs 990 nM.
In turn, `O=C(c1cc(OC(F)(F)F)ccc1O)N1CCN(c2ccccc2)CC1` registered a concentration for half-maximal inhibition (IC50) of 1050 nM.
With `O=S(=O)(NCCN1CCCC1)c1ccc(-c2ccccc2CNC2Cc3ccccc3C2)cc1`, the IC50 was found to be 850 nM.
`CC(C)CNC(=O)c1cncc(-c2ccc(CNCCCc3ccccc3)cc2)c1` showed an IC50 of 770 nM.
To `CCCc1ccc(N2C(N)=NC(N)=NC2(C)C)cc1` belongs 30 nM; to `COc1cc2nc(NCCCO)nc(Nc3ccc(Oc4ccccc4)cc3)c2cc1OC`, 140 nM.
